Results published in patent US12421232B2, “Kinase inhibitor compounds and compositions and methods of use” (ICAHN SCHOOL OF MEDICINE AT MOUNT SINAI, priority 2018, dated 2025).
Where two headings read alike, the source gives them in different places.

Experiments:
Assay in all cases: KINOMEscan Assay (DiscoverX)
Type in all cases: binding
Conditions in all cases: read-out: % DMSO Ctrl
CAMK2A = molecular target: T1, CAMK2A (Homo sapiens, UniProt Q9UQM7)
T1 construct: purchased DiscoverX

FLT3(K663Q) = molecular target: T2, FLT3(K663Q) (Homo sapiens, UniProt P36888, K663Q)
T2 construct: purchased DiscoverX
T2 sequence (P36888 27-993 K663Q): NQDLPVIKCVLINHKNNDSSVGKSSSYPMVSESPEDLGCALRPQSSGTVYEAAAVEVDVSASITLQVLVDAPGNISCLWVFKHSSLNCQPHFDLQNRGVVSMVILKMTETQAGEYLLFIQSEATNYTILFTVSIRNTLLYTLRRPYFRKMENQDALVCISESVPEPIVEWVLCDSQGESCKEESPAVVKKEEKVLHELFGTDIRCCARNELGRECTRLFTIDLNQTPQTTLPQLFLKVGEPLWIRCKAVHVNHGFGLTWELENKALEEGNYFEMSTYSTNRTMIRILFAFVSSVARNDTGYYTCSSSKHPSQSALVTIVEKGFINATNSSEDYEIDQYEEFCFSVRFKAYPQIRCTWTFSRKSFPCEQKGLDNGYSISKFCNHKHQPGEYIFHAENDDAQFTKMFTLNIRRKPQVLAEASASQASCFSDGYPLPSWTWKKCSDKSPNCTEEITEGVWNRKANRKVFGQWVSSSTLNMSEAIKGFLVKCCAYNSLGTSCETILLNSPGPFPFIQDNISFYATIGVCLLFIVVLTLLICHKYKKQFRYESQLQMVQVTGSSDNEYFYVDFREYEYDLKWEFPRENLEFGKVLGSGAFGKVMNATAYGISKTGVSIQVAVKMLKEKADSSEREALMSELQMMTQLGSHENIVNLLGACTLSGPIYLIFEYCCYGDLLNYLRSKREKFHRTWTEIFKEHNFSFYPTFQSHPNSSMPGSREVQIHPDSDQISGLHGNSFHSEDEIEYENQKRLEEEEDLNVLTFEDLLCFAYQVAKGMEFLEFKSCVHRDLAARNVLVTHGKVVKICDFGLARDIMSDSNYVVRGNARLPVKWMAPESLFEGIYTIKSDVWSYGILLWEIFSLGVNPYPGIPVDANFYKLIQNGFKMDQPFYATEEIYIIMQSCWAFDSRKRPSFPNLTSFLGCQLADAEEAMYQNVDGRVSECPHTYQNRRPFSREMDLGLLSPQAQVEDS

[1] = molecular target: T3, JAK3(JH1DOMAIN-CATALYTIC) (Homo sapiens, UniProt P52333)
T3 construct: JH1DOMAIN; purchased DiscoverX

PIKFYVE = molecular target: T4, PIKFYVE (Homo sapiens, UniProt Q9Y2I7)
T4 construct: purchased DiscoverX

[2] = molecular target: T5, TYK2(JH1domain-catalytic) (Homo sapiens, UniProt P29597)
T5 construct: JH1domain; purchased DiscoverX
T5 sequence (P29597 897-1176 limits assumed): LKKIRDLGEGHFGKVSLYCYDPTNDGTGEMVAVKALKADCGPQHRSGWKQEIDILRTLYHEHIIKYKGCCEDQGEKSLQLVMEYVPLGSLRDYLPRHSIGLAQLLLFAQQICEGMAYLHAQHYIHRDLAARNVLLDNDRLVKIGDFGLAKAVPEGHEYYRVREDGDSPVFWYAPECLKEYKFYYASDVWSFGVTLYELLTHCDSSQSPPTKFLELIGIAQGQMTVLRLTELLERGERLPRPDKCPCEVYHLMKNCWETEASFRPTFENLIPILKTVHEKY

HASPIN = molecular target: T6, HASPIN (Homo sapiens, UniProt Q8TF76)
T6 construct: purchased DiscoverX
T6 sequence (Q8TF76 1-798): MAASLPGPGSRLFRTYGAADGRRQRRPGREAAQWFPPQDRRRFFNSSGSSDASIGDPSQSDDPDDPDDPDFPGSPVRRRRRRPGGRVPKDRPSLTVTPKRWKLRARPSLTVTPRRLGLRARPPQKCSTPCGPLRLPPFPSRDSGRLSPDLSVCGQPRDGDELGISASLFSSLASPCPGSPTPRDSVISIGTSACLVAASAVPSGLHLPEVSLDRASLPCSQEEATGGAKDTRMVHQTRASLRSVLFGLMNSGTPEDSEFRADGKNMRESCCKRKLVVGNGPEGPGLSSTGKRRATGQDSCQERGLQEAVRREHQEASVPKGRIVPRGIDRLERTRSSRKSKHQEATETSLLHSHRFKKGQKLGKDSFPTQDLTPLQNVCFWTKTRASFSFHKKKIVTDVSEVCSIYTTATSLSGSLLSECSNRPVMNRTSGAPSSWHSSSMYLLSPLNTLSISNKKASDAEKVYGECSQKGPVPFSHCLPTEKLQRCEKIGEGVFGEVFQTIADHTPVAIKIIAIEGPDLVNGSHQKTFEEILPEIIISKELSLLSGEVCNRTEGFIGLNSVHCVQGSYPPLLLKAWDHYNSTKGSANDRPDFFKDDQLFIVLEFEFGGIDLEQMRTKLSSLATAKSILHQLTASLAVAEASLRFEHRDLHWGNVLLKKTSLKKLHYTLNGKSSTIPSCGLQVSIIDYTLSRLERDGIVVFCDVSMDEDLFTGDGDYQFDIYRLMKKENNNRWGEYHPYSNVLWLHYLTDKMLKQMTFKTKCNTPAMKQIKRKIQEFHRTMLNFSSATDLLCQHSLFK

HIPK2 = molecular target: T7, HIPK2 (Homo sapiens, UniProt Q9H2X6)
T7 construct: purchased DiscoverX

IRAK1 = molecular target: T8, IRAK1 (Homo sapiens, UniProt P51617)
T8 construct: purchased DiscoverX

PIK4CB = molecular target: T9, PIK4CB (Homo sapiens, UniProt Q9UBF8)
T9 construct: purchased DiscoverX
T9 sequence (Q9UBF8 whole entry): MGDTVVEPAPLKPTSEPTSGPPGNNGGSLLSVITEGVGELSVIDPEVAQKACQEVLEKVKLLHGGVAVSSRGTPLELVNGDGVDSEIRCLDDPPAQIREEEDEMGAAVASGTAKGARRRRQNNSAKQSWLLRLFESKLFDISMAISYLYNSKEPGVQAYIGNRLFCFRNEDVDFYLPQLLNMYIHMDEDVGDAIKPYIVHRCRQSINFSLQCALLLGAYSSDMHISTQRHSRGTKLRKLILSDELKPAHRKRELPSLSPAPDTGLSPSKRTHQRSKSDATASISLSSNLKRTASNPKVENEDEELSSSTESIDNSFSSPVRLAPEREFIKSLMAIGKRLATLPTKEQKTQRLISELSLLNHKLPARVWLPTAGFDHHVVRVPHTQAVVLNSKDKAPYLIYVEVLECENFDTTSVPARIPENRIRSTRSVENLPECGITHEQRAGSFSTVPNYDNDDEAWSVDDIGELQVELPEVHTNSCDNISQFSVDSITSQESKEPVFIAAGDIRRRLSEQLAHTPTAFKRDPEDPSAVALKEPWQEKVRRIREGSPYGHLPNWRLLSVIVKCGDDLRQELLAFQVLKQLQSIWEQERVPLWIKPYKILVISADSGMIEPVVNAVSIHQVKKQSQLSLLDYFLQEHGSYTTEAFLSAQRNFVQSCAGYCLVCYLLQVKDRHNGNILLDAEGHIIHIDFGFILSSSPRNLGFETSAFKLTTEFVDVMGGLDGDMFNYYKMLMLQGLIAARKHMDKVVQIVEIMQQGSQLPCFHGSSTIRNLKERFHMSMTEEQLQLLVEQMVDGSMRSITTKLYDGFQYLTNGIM

T8 sequence (P51617 whole entry): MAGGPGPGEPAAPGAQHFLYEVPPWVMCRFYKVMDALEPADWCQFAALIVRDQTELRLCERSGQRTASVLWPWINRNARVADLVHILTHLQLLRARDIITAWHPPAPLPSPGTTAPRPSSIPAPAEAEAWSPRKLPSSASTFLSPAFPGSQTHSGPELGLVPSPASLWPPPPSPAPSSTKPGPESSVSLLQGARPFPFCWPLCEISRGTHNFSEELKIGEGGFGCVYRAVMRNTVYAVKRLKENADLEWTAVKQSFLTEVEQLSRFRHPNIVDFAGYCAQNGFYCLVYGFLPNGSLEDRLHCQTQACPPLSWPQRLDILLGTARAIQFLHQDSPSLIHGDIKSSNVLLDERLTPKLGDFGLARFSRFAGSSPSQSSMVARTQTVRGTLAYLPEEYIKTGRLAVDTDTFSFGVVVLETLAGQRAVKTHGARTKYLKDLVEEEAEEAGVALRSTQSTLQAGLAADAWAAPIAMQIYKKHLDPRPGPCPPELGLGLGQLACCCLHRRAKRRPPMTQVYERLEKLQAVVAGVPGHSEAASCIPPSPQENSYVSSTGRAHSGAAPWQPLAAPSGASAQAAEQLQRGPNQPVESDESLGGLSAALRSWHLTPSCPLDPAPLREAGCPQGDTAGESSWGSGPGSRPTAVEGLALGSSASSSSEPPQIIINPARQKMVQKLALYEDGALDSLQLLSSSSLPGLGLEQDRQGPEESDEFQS
T4 sequence (Q9Y2I7 whole entry): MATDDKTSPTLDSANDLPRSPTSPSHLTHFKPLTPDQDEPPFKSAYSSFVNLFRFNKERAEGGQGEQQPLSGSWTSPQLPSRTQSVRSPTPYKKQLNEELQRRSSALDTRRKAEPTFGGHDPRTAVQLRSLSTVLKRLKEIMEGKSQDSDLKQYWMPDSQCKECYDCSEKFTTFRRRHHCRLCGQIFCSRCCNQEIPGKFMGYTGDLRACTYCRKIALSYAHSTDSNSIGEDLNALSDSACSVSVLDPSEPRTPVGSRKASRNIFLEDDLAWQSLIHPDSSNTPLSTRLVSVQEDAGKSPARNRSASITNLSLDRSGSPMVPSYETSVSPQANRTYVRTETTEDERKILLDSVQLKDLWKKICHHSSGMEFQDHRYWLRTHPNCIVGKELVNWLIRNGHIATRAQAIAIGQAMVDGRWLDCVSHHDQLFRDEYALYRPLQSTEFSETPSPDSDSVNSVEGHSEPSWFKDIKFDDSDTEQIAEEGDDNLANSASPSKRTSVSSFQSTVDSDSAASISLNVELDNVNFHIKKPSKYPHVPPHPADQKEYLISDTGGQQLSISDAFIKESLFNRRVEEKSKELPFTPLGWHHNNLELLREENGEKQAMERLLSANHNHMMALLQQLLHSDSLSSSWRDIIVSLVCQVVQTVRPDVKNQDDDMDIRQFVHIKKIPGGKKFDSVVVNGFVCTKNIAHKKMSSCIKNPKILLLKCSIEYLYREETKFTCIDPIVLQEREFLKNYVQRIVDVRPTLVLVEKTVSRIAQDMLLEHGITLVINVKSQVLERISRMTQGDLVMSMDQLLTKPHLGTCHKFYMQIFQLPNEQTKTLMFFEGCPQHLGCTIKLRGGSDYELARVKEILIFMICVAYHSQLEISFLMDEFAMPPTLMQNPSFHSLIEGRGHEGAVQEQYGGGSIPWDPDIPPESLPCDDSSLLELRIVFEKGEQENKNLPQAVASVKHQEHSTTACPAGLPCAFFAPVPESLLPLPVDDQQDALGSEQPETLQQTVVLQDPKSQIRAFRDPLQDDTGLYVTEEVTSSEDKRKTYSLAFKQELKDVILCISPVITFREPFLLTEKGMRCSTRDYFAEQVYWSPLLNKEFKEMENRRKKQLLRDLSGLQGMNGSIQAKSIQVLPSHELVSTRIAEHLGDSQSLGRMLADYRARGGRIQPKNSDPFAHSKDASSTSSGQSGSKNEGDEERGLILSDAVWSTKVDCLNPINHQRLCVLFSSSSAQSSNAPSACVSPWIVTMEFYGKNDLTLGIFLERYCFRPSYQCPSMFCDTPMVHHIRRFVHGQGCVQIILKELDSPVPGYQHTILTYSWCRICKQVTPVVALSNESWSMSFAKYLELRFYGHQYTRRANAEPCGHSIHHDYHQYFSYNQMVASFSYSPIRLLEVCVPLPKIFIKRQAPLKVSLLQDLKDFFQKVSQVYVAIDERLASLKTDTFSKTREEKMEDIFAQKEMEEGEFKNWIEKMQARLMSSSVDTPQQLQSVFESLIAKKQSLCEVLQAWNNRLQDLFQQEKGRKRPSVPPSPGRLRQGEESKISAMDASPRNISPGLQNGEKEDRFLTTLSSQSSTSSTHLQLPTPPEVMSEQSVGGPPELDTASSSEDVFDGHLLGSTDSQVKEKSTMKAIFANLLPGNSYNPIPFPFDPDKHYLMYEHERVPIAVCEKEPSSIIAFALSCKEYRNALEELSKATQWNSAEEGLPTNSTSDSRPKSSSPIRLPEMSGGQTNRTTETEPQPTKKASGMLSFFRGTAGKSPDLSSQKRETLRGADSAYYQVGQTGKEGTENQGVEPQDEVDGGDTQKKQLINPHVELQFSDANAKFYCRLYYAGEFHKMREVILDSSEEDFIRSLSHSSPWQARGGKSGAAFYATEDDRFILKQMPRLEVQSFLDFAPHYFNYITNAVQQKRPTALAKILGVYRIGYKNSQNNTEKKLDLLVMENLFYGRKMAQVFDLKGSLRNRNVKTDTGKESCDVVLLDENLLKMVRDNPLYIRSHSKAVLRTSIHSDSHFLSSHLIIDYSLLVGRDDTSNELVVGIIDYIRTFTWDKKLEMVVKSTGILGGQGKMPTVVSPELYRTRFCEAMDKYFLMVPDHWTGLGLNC
T1 sequence (Q9UQM7 whole entry): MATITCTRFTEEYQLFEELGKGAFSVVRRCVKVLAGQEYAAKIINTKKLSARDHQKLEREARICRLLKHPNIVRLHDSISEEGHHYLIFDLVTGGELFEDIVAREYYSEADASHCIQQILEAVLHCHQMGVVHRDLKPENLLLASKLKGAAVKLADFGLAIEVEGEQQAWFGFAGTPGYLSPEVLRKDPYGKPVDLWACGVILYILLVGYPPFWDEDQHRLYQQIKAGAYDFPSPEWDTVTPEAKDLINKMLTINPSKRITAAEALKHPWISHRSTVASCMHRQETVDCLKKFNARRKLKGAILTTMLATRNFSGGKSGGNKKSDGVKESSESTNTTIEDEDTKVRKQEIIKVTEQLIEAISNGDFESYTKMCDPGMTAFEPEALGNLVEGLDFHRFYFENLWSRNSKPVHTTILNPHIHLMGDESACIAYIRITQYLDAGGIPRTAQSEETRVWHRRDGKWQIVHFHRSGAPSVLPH
T3 sequence (P52333 822-1111 limits assumed): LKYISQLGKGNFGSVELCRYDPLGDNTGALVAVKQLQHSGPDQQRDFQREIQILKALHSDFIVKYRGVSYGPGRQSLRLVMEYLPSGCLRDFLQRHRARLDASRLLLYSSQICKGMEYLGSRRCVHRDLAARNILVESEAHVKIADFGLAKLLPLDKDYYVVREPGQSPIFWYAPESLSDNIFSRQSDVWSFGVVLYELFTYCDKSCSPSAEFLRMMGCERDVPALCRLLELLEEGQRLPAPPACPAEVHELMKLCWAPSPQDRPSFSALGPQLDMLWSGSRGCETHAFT

Structure (SMILES) | remaining binding at 10 µM (CAMK2A; CAMK2A, 10 μM) | remaining binding at 10 µM (FLT3(K663Q); FLT3(K663Q) mutant, 10 μM) | remaining binding at 10 µM ([1]; JAK3(JH1DOMAIN-[…]), 10 μM) | remaining binding at 10 µM (PIKFYVE; PIKFYVE, 10 μM) | remaining binding at 10 µM ([2]; TYK2(JH1domain-catalytic), 10 μM) | remaining binding at 10 µM (CAMK2A) | remaining binding at 10 µM (FLT3(K663Q)) | remaining binding at 10 µM (HASPIN) | remaining binding at 10 µM (HIPK2) | remaining binding at 10 µM (IRAK1) | remaining binding at 10 µM [1] | remaining binding at 10 µM (PIK4CB) | remaining binding at 10 µM (PIKFYVE) | remaining binding at 10 µM [2] | remaining binding at 10 µM (HIPK2; HIPK2, 10 μM) | remaining binding at 10 µM (IRAK1; IRAK1, 10 μM) | remaining binding at 10 µM (PIK4CB; PIK4CB, 10 μM)
COc1ccc2c(c1)[nH]c1c(C)nc(CO)cc12 [Compound 2-8, (1-Methyl-7-methoxy-9H-pyrido[3,4-b]indol-3-yl)methanol] | 53% | 100% | 96% | 88% | 64% |  |  |  |  |  |  |  |  |  |  |  | 
COc1ccc2c3ccnc(C)c3n(CCCc3noc(N)n3)c2c1 [Compound 20-13, 3-(3-(7-Methoxy-1-methyl-β-carbolin-9-yl)propyl)-5-amino-1,2,4-oxadiazole] |  |  |  |  |  | 72% | 98% | 0.35% | 2.3% | 58% | 87% | 9.9% | 3.2% | 17% |  |  | 
C#CCn1c2cc(OC)ccc2c2ccnc(C)c21 [Compound 20-23a, 3-(7-Methoxy-1-methyl-β-carbolin-9-yl)-propan-1-yne] |  |  | 100% |  |  | 13% | 93% | 1.7% |  |  |  |  | 60% | 91% | 71% | 42% | 0%
COc1ccc2c(c1)[nH]c1c(C)nccc12 [Harmine, reference compound] |  |  |  |  |  |  |  | 2% | 8.6% | 17% | 61% | 12% |  |  |  |  | 
